Laboratory results: US9725490B2, “ERAP1-derived peptide and use thereof” (TOKUSHIMA UNIVERSITY, priority 2011, dated 2017)

How the values were obtained:
KPL3 cells = test: E2-independent cell proliferation, KPL-3C; format: cell-based, human; settings: 10 μM every 24 hours, at 48 hours
Procedure: (§1) FIG. 16 is a diagram illustrating the influence of the ERAP1-peptide on proliferation of E2-independent breast cancer cells. […] Each of the cells was treated with 10 μM ERAP1-peptide for 24 hours (MCF-7), for 48 hours (KPL-3C) or for 96 hours (ZR-75-1 and T47D).
(§2) MCF-7 cells or ZR-75-1 cells were seeded in 2×10^4/well, and KPL-3C cells were seeded in 1×10^4/well on a 48-well plate, and stood in a CO2 incubator for 24 hours. Then, for MCF-7 cells, the culture medium was exchanged with DMEM/F12 culture medium containing 10% FBS (Nichirei Biosciences, Tokyo, Japan), 1% antibiotic/antimycotic solution (Invitrogen), 0.1 mM NEAA48 (invitrogen), 1 mM sodium pyruvate and 10 μg/ml insulin (Sigma, St. Louis, Mo., USA) and not containing phenol red, and the cells were further pre-cultured for 24 hours. On the other hand, for ZR-75-1 cells and KPL-3C cells, the culture media were exchanged with RPMI culture media containing 10% FBS and 1% antibiotic/antimycotic solution and not containing phenol red, and the cells were further pre-cultured for 24 hours. The supernatant was removed, and then 200 μl of the ERAP1-peptide in each concentration or tamoxifen as a positive control was added, respectively and the mixture was reacted for 24 hours. […] Then, 100 μl from each well was moved to a 96-well plate, and the absorbance at 450 nm was measured with a microplate reader.

[1] = system: generation of ROS in MCF-7 cells; test: ROS production in the mitochondria, DHR123 flow cytometry; format: cell-based, human
Procedure: FIG. 41-2 is a diagram illustrating that ROS production in the mitochondria by E2 stimulation is induced through ERAP1. […] MCF-7 cells, and MCF-7 cells suppressed for expression of ERAP1, and HCC1395 cells were treated with 10 μM DHR123 for 15 minutes. The cells were washed, and then stimulated with 10 μM ERAP1-peptide and 10 nM E2 for 24 hours, and analyzed by flow cytometry. Cells treated with 1 mM H2O2 for 24 hours were used as a positive control. The data are representative examples of two independent experiments.

ZR75-1 cells = test: E2-independent cell proliferation, ZR-75-1; format: cell-based, human; settings: 10 μM every 24 hours, at 96 hours
Procedure: as §1, §2

MCF-10A cells = test: Cell proliferation assay, normal epithelial MCF-10A; format: cell-based, human; settings: 24 hours
Procedure: FIG. 6-1 is a diagram illustrating that ERAP1-peptide treatment suppresses ERα-dependent cell proliferation of breast cancer cell lines. (A) and (B) show the results of MTT assay by which the inhibition effect of the ERAP1-peptide in the E2-dependent cell proliferation was evaluated. MCF-7 cells were treated with the ERAP1-peptide (A, B) the ERAP1-scramble peptide (B) or the ERAP1-mutant peptide (B).
Using Cell-Counting Kit-8 (CCK-8, Dojindo, Kumamoto, Japan), the cell proliferation assay was performed. The cells were harvested, and plated in 2×10^4 cells/well on a 48-well plate, and maintained at 37° C. in a humidified incubator. At the indicated time points, the cells were added with a CCK-8 solution diluted to 1:10, and incubated for 1 hour. Then, the absorbance at 450 nm was measured and the number of living cells in each well was calculated.

[2] = system: ERα interaction with IGF-1Rβ, Shc; AKT and MAPK; test: Non-genomic activation route, immunoblotting, KPL-3C; format: cell-based, human
Procedure: FIG. 9-1 is a diagram illustrating that ERAP1-peptide treatment suppresses the non-genomic activation route. […] The cell lysate of the ERα-positive breast cancer cell lines shown in the figure was subjected to immunoblotting analysis using the antibodies shown in the figure. […] KPL-3C cells were treated with the ERAP1-peptide and/or E2 for 24 hours. Then the nuclear fraction was immunoprecipitated with anti-ERα antibody.
FIG. 9-2 is a diagram illustrating that ERAP1-peptide treatment suppresses the non-genomic activation route. […] The cells (C and D) or BT474 cells (E) Were treated with the ERAP1-peptide. Then, the phosphorylation levels of Akt (C). MAPK (C) and ERα (D and E) were evaluated with Western blotting. The relative phosphorylation levels were quantified by densitometry analysis, and the ratio to the value at 0 hour for non-treated cells was calculated.

Tam-R MCF-7 tumor = test: In vivo antitumor effect, Tam-R MCF-7 orthotopic transplant; parameters: species or system BALB/c nude mouse; settings: intraperitoneal every day, E2 6 μg/day, day 21
From the text: FIG. 27 is a diagram illustrating the inhibition effect of the ERAP1-peptide on tumor proliferation in a mouse orthotopically transplanted with human breast cancer. […] KPL-3 cells were subcutaneously transplanted into the breast fat body of a BALB/c nude mouse. The treatment test (5 individuals/group) was initiated (day 0) when the volume of the tumor reached about 50-80 mm^3 in the absence of E2. To a cancerous mouse orthotopically transplanted with KPL-3C tumor, the ERAP1-peptide (Peptide: 14 mg/kg) or the ERAP1-scramble peptide (scrPeptide: 14 mg/kg) was administered every day by intraperitoneal injection. At the same time, E2 (6 μg/day) was administered subcutaneously every day. On day 14, the mouse was euthanatized, and the tumor was removed, and phosphorylation of PHB2/REA (S39) in each tumor was evaluated with immunoblotting analysis. […] The tamoxifen-resistant MCF7-cells (Tam-R MCF-7) were subcutaneously transplanted into the breast fat body of a BALB/c nude mouse, and the treatment test (5 individuals/group) was initiated (day 0) when the volume of the tumor reached about 50-80 mm^3 in the presence of tamoxifen (37 ng/day, 1.85 μg/kg). To a cancerous mouse orthotopically transplanted with Tam-R MCF-7 tumor, the ERAP1-peptide (Peptide: 3.5, 7 and 14 mg/kg) or the ERAP1-scramble peptide (scrPeptide: 14 mg/kg) was administered every day by intraperitoneal injection. […]

Structure (SMILES): CSCC[C@H](NC(=O)[C@H](CCC(N)=O)NC(=O)[C@H](CCCNC(=N)N)NC(=O)[C@H](CCCNC(=N)N)NC(=O)[C@H](CCCNC(=N)N)NC(=O)[C@H](CCCNC(=N)N)NC(=O)[C@H](CCCNC(=N)N)NC(=O)[C@H](CCCNC(=N)N)NC(=O)[C@H](CCCNC(=N)N)NC(=O)[C@H](CCCNC(=N)N)NC(=O)[C@H](CCCNC(=N)N)NC(=O)[C@H](CCCNC(=N)N)NC(=O)[C@@H](N)CCCNC(=N)N)C(=O)N[C@@H](CC(C)C)C(=O)N[C@@H](CO)C(=O)N[C@@H](CC(=O)O)C(=O)N[C@@H](CC(C)C)C(=O)N[C@H](C(=O)N[C@@H](CC(C)C)C(=O)N[C@@H](CCC(N)=O)C(=O)N[C@@H](CC(C)C)C(=O)N[C@@H](CCCNC(=N)N)C(=O)N[C@@H](CCC(N)=O)C(=O)N[C@@H](CCCNC(=N)N)C(=O)O)[C@@H](C)O [ERAP1-peptide]
- cell proliferation in the absence of E2 (KPL3 cells): significant cell proliferation suppression effect
- generation of ROS ([1]; MCF-7 in which expression of ERAP1 was suppressed): had no influence on the generation of ROS
- generation of ROS ([1]; MCF-7 transfected with control siRNA, 10 μM, E2 24 hours): generation of ROS was remarkably suppressed
- cell proliferation in the absence of E2 (ZR75-1 cells): significant cell proliferation suppression effect
- cell proliferation (MCF-10A cells): had no influence on the cell proliferation at all
- activations of AKT and MAPK [2]: activations of AKT and MAPK were suppressed
- binding of ERα and Shc and of ERα and IGF-1Rβ [2]: the binding of ERα and Shc and the binding of ERα and IGF-1Rβ were inhibited
- antitumor effect (tumor volume) (Tam-R MCF-7 tumor): The antitumor effect was recognized
